Experimental data: patent publication US6372774B1, “Derivatives of N-phenylpyrazoles” (Rhone-Poulenc Agriculture Ltd., priority 1985, dated 2002)
Read-outs that look alike come from different tables or passages of the source.

What was measured:
Format in all cases: in vivo
[1] = tested on: Megoura viciae (Vetch Aphid); assay: Test 3 b): spray of infested tic bean plants, Megoura viciae; conditions: for Megoura score/12 50 ppm: Tables 1 and 3, sum of scores 0-3 of 4 replicates; for mortality at 50 ppm: Megoura viciae, read-out: mortality of Megoura viciae; for score from 4 replicates, Megoura viciae: Test 3 method (b), application of 50 ppm, score 0-3 per replicate, maximum 12
Method: (§1) One or more dilutions of the compounds to be tested were made in 50% aqueous acetone.
b) Megoura viciae (Vetch Aphid)
Potted tic bean plants previously infected with mixed stages of Megoura were sprayed to run-off using a laboratory turntable sprayer. Treated plants were held in a greenhouse for 2 days and were assessed for aphid mortality using a scoring system, judging the response in comparison with plants treated with 50% aqueous acetone alone, as controls.

[2] = tested on: Plutella xylostella (Diamond-back Moth); assay: whole plant or invertebrate; conditions: foliar; for mortality at 500 ppm: read-out: mortality of larvae of Plutella xylostella; for pest or weed control at 500 ppm: read-out: Plutella % m 500 ppm
From the text: as §1
(§2) a) Test species: Plutella xylostella (Diamond-back Moth) and Phaedon cochleariae (Mustard Beetle)
(§3) Turnip leaf discs were set in agar in petri-dishes and infected with 10 larvae (2nd instar Plutella or 3rd instar Phaedon). Four replicate dishes were assigned to each treatment and were sprayed under a Potter Tower with the appropriate test dilution. Four or five days after treatment the dishes were removed from the constant temperature (25° C.) room in which they had been held and the mean percentage mortalities of larvae were determined.

[3] = tested on: Phaedon cochleariae (Mustard Beetle); assay: Test 3 a): leaf disc spray test, Phaedon cochleariae larvae; conditions: for pest or weed control at 10 ppm / mortality at 5 ppm: Phaedon cochleariae, foliar; for pest or weed control at 10 ppm: read-out: Phaedon % m 10 ppm; for mortality at 5 ppm: read-out: mortality of larvae of Phaedon cochleariae
From the text: as §1, §2, §3

| Compound | pest or weed control at 10 ppm [3] [%] | mortality at 50 ppm [1] [%] | score from 4 replicates, Megoura viciae [1] | mortality at 5 ppm [3] [%] | further results |
| --- | --- | --- | --- | --- | --- |
| N#Cc1c(C(F)(F)C(F)(F)F)nn(-c2c(Cl)cc(C(F)(F)F)cc2Cl)c1N [Compound 127, 5-Amino-4-cyano-1-(2,6-dichloro-4-trifluoromethylphenyl)-3-pentafluoroethylpyrazole] | 100 | – | – | – | Megoura score/12 50 ppm [1]: 10; mortality at 100 ppm ([2]; read-out: Plutella % mortality at 100 ppm): 100% |
| CC(C)(C)[Si](C)(C)c1c(C#N)c(C(F)(F)F)nn1-c1c(Cl)cc(C(F)(F)F)cc1Cl [Compound 206, 5-tert.-Butyldimethylsilyl-4-cyano-1-(2,6-dichloro-4-trifluoromethylphenyl)-3-trifluoromethylpyrazole] | – | 100 | 12 | 100 | – |
| CS(=O)(=O)c1c(C#N)nn(-c2c(Cl)cc(C(F)(F)F)cc2Cl)c1N [Compound 214, 5-Amino-3-cyano-1-(2,6-dichloro-4-trifluoromethylphenyl)-4-methanesulphonylpyrazole] | – | 100 | 12 | 100 | mortality at 500 ppm [2]: 100% |
| CC[S+]([O-])c1c(C(F)(F)F)nn(-c2c(Cl)cc(C(F)(F)F)cc2Cl)c1N (stereo not drawn) [Compound 217, 5-Amino-1-(2,6-dichloro-4-trifluoromethylphenyl)-4-ethylsulphinyl-3-trifluoromethylpyrazole] | – | 100 | 12 | 100 | – |
| Cc1nn(-c2c(Cl)cc(C(F)(F)F)cc2Cl)c(N)c1[N+](=O)[O-] [Compound 191, 5-Amino-1-(2,6-dichloro-4-trifluoromethylphenyl)-3-methyl-4-nitropyrazole] | – | 100 | 12 | – | – |
| 5-Amino-3-chlorofluoromethyl-4-cyano-1-(2,6-dichloro-4-trifluoromethylphenyl)pyrazole [Compound 166] | – | – | 12 | – | – |
| N#Cc1cn(-c2c(Cl)cc(C(F)(F)F)cc2Cl)nc1[N+](=O)[O-] [Compound 200, 1-(2,6-Dichloro-4-trifluoromethylphenyl)-4-cyano-3-nitropyrazole] | – | 100 | 12 | – | – |
| Cc1nn(-c2c(Cl)cc(C(F)(F)F)cc2Cl)c(N)c1S(C)(=O)=O [Compound 161, 5-Amino-1-(2,6-dichloro-4-trifluoromethylphenyl)-4-methanesulphonyl-3-methylpyrazole] | – | 100 | 12 | 100 | – |
| CCSc1c(C)nn(-c2c(Cl)cc(C(F)(F)F)cc2Cl)c1N [Compound 225, 5-Amino-1-(2,6-dichloro-4-trifluoromethylphenyl)-4-ethylthio-3-methylpyrazole] | – | 100 | 12 | – | – |
| CSc1c(C)nn(-c2c(Cl)cc(C(F)(F)F)cc2Cl)c1N [Compound 226, 5-Amino-1-(2,6-dichloro-4-trifluoromethylphenyl)-3-methyl-4-methylthiopyrazole] | – | 100 | 12 | 100 | – |
| CC(C)(C)C(=O)Nc1c([N+](=O)[O-])c(C(F)(F)F)nn1-c1c(Cl)cc(C(F)(F)F)cc1Cl [Compound 178, 1-(2,6-Dichloro-4-trifluoromethylphenyl)-4-nitro-3-trifluoromethyl-5-trimethylacetylaminopyrazole] | – | – | – | 100 | mortality at 500 ppm [2]: 100% |
| 5-Amino-3-chlorodifluoromethyl-1-(2,6-dichloro-4-trifluoromethylphenyl)-4-cyanopyrazole [Compound 128] | – | – | 12 | – | Phaedon % m 10 ppm ([3]; Tables 1-3, % mortality at 10 ppm): 100% |
| N#Cc1c(C(F)(F)F)nn(-c2c(Cl)cc(C(F)(F)F)cc2Cl)c1Br [Compound 141, 5-Bromo-4-cyano-1-(2,6-dichloro-4-trifluoromethylphenyl)-3-trifluoromethylpyrazole] | 100 | – | – | – | pest or weed control at 500 ppm [2]: 44% |
| N#Cc1c(C(F)(F)F)nn(-c2c(Cl)cc(SC(F)(F)F)cc2Cl)c1N [Compound 165, 5-Amino-4-cyano-1-(2,6-dichloro-4-trifluoromethylthiophenyl)-3-trifluoromethylpyrazole] | – | 100 | 12 | 100 | – |
| Cc1nn(-c2c(Cl)cc(C(F)(F)F)cc2Cl)c(N)c1S(=O)(=O)C(Cl)(Cl)Cl [Compound 224, 5-Amino-1-(2,6-dichloro-4-trifluoromethylphenyl)-4-trichloromethanesulphonyl-3-methylpyrazole] | – | 100 | 12 | 100 | – |
| N#Cc1nn(-c2c(Cl)cc(SC(F)(F)F)cc2Cl)c(N)c1C#N [Compound 156, 5-Amino-3,4-dicyano-1-(2,6-dichloro-4-trifluoromethylthiophenyl)pyrazole] | – | 100 | 12 | – | – |
| CCOC(=O)Nc1c(C#N)c(C(F)(F)F)nn1-c1c(Cl)cc(C(F)(F)F)cc1Cl [Compound 149, 4-Cyano-1-(2,6-dichloro-4-trifluoromethylphenyl)-5-ethoxycarbonylamino-3-trifluoromethylpyrazole] | 100 | – | – | – | mortality at 500 ppm ([2]; Test 3 method (a), application of 500 ppm): 100% |
| Nc1c(Cl)c(C(F)(F)F)nn1-c1c(Cl)cc(C(F)(F)F)cc1Cl [Compound 148, 5-Amino-4-chloro-1-(2,6-dichloro-4-trifluoromethylphenyl)-3-trifluoromethylpyrazole] | 21 | – | – | – | pest or weed control at 500 ppm [2]: 98% |
| Cc1nn(-c2c(Cl)cc(C(F)(F)F)cc2Cl)c(N)c1C#N [Compound 112, 5-Amino-4-cyano-1-(2,6-dichloro-4-trifluoromethylphenyl)-3-methylpyrazole] | 98 | 100 | 12 | – | – |
| N#Cc1nn(-c2c(Cl)cc(C(F)(F)F)cc2Cl)c([N+](=O)[O-])c1C#N [Compound 201, 1-(2,6-Dichloro-4-trifluoromethylphenyl)-3,4-dicyano-5-nitropyrazole] | – | 100 | 12 | – | – |
| CCSNc1c(C#N)c(C)nn1-c1c(Cl)cc(C(F)(F)F)cc1Cl [Compound 117, 4-Cyano-1-(2,6-dichloro-4-trifluoromethylphenyl)-3-methyl-5-ethanesulphenylaminopyrazole] | 68 | – | – | – | Megoura score/12 at 10 ppm ([1]; Table 3, value marked +: score at 10 ppm): 10+ |
| O=[N+]([O-])c1cn(-c2c(Cl)cc(C(F)(F)F)cc2Cl)nc1C(F)(F)F [Compound 193, 1-(2,6-Dichloro-4-trifluoromethylphenyl)-4-nitro-3-trifluoromethylpyrazole] | – | – | – | 100 | mortality at 500 ppm [2]: 100% |
| Cc1c(C#N)c(C(F)(F)F)nn1-c1c(Cl)cc(C(F)(F)F)cc1Cl [Compound 152, 4-Cyano-1-(2,6-dichloro-4-trifluoromethylphenyl)-5-methyl-3-trifluoromethylpyrazole] | 100 | – | – | – | mortality at 500 ppm [2]: 100% |
| Cc1nn(-c2c(Cl)cc(C(F)(F)F)cc2Cl)c(N)c1I [Compound 190, 5-Amino-1-(2,6-dichloro-4-trifluoromethylphenyl)-4-iodo-3-methylpyrazole] | – | 100 | 12 | – | – |
| COC(=O)Nc1c(C#N)c(C(F)(F)F)nn1-c1c(Cl)cc(C(F)(F)F)cc1Cl [Compound 212, 4-Cyano-1-(2,6-dichloro-4-trifluoromethylphenyl)-5-methoxycarbonylamino-3-trifluoromethylpyrazole] | – | – | – | 100 | mortality at 500 ppm [2]: 100% |
| CCOC(=O)Nc1c(C#N)c(C#N)nn1-c1c(Cl)cc(C(F)(F)F)cc1Cl [Compound 188, 1-(2,6-Dichloro-4-trifluoromethylphenyl)-3,4-dicyano-5-ethoxycarbonylaminopyrazole] | – | – | – | 100 | mortality at 500 ppm [2]: 100% |
| NC(=O)c1c(C(F)(F)F)nn(-c2c(Cl)cc(C(F)(F)F)cc2Cl)c1N [Compound 131, 5-Amino-4-carbamoyl-1-(2,6-dichloro-4-trifluoromethylphenyl)-3-trifluoromethylpyrazole] | 100 | – | – | – | pest or weed control at 500 ppm [2]: 58% |
| N#Cc1c(C(F)(F)F)nn(-c2c(Cl)cc(C(F)(F)F)cc2Cl)c1N(C(=O)C1CC1)C(=O)C1CC1 [Compound 146, 4-Cyano-1-(2,6-dichloro-4-trifluoromethylphenyl)-5-bis(cyclopropanecarbonyl)amino-3-trifluoromethylpyrazole] | 85 | – | – | – | mortality at 500 ppm [2]: 100% |
| CN(C)c1c(C#N)c(C(F)(F)F)nn1-c1c(Cl)cc(C(F)(F)F)cc1Cl [Compound 136, 4-Cyano-1-(2,6-dichloro-4-trifluoromethylphenyl)-5-dimethylamino-3-trifluoromethylpyrazole] | 56 | – | – | – | mortality at 500 ppm [2]: 100% |
| CN(C)S(=O)(=O)c1c(C(F)(F)F)nn(-c2c(Cl)cc(C(F)(F)F)cc2Cl)c1N [Compound 153, 5-Amino-1-(2,6-dichloro-4-trifluoromethylphenyl)-4-(N,N-dimethylsulphamoyl)-3-trifluoromethylpyrazole] | 100 | – | – | – | Megoura score/12 50 ppm [1]: 11 |
